Laboratory results: article PMC2962730 (Journal of neurochemistry, 2010)
Positions count from the first letter of the chain named.

Key:
hVAChT W325F = target: T1, hVAChT W325F (Homo sapiens, UniProt Q16572, W325F); experiment: [3H]vesamicol saturation binding; conditions: pH 7.4
T1 sequence (Q16572 1-532 W325F): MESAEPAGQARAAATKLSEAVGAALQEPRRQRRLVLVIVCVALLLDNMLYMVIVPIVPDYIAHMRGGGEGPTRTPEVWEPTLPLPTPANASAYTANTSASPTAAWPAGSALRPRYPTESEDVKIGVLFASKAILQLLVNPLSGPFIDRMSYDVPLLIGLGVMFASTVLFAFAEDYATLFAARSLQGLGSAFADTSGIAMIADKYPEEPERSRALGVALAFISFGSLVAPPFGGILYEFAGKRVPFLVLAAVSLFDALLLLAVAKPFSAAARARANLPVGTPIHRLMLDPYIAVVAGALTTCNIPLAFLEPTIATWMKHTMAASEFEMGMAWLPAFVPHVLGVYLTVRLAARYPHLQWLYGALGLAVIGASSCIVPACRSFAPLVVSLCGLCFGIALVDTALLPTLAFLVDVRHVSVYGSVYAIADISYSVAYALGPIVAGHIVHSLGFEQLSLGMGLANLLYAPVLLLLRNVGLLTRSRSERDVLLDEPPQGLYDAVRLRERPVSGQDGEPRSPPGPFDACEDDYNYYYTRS

hVAChT M316A = target: T2, hVAChT M316A (Homo sapiens, UniProt Q16572, M316A); experiment: [3H]vesamicol saturation binding; conditions: pH 7.4
T2 sequence (Q16572 1-532 M316A): T1 sequence (Q16572 1-532 W325F) with M316A, F325W

hVAChT A330V = target: T3, hVAChT A330V (Homo sapiens, UniProt Q16572, A330V); experiment: [3H]vesamicol saturation binding; conditions: pH 7.4
T3 sequence (Q16572 1-532 A330V): T1 sequence (Q16572 1-532 W325F) with F325W, A330V

hVAChT K317A = target: T4, hVAChT K317A (Homo sapiens, UniProt Q16572, K317A); experiment: [3H]ACh transport; type: biochemical
T4 sequence (Q16572 1-532 K317A): T1 sequence (Q16572 1-532 W325F) with K317A, F325W

hVAChT wild-type = target: T5, hVAChT wild-type (Homo sapiens, UniProt Q16572); experiment: [3H]ACh transport; type: biochemical; conditions: WT hVAChT, pH 7.4
T5 sequence (Q16572 1-532): T1 sequence (Q16572 1-532 W325F) with F325W

Row | Vmax/Bmax, ACh transport normalized to Bmax (hVAChT K317A; pH 7.4) | Km (hVAChT K317A; read-out: KM, Michaelis-Menten constant for ACh transport, pH 7.4) | Vmax/Bmax, ACh transport normalized to Bmax (hVAChT wild-type) | Km (hVAChT wild-type; read-out: KM, Michaelis-Menten constant for ACh transport) | SMILES | Bmax, maximal specific [3H]vesamicol binding (VAChT expression level) (hVAChT W325F) | Bmax, maximal specific [3H]vesamicol binding (VAChT expression level) (hVAChT M316A) | Bmax, maximal specific [3H]vesamicol binding (VAChT expression level) (hVAChT A330V)
1 |  |  |  |  | O[C@@H]1CCCC[C@H]1N1CCC(c2ccccc2)CC1 (racemic) [vesamicol, ( )-trans-2-(4-phenylpiperidino)cyclohexanol] | 75 ± 3 pmol/mg | 38 ± 2 pmol/mg | 21 ± 0 pmol/mg
2 | 17.8 ± 3.9 min⁻¹ | 3200 ± 1200 µM | 6.8 ± 0.5 min⁻¹ | 950 ± 200 µM | CC(=O)OCC[N+](C)(C)C [ACh, acetylcholine] |  |  | 
